Data reported in publication PMC11364775, “Ion occupancy of the selectivity filter controls opening of a cytoplasmic gate in the K2P channel TALK-2” (Nature Communications, 2024).

Tests used:
[1] = molecular target: T1, WT TALK-2 channels (human K2P17.1) (Homo sapiens, UniProt Q96T54); parameters: expressed in transfected cells; host or cells: Xenopus laevis oocytes (cRNA injection), excised inside-out patches; method as in PMID 34928298; settings: cited from earlier work
T1 sequence (Q96T54 1-332): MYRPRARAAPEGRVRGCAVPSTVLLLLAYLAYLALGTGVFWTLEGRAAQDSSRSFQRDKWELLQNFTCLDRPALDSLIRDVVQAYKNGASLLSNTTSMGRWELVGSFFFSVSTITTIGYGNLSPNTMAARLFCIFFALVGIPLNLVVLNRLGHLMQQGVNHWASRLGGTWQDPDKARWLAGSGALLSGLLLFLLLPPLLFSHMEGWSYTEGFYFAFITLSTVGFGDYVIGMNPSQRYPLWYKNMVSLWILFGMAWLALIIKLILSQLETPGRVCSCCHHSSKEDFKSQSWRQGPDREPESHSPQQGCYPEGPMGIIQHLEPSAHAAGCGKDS

[2] = molecular target: T1, WT TALK-2 channels (human K2P17.1); experiment: Inside-out patch-clamp, ligand activation of channel currents at +40 mV (oocytes); settings: 5 µM; TALK-2 WT
Protocol: Oocytes were surgically removed from anesthetized adult females, treated with type II collagenase (Sigma-Aldrich/Merck, Germany) and manually defolliculated. 50 nl of a solution containing the K^+ channel specific cRNA was injected into Dumont stage V - VI oocytes and subsequently incubated at 17 °C in a solution containing (mM): 54 NaCl, 30 KCl, 2.4 NaHCO3, 0.82 MgSO4 x 7 H2O, 0.41 CaCl2, 0.33 Ca(NO3)2 x 4 H2O and 7.5 TRIS (pH 7.4 adjusted with NaOH/HCl) for 1–7 days before use. Electrophysiological recordings: Excised patch measurements in inside-out configuration under voltage-clamp conditions were performed at room temperature (22 – 24 °C). […] Intracellular bath solutions and compounds were applied to the cytoplasmic side of excised patches for the various K^+ channels via a gravity flow multi-barrel pipette system. Intracellular solution had the following composition (in mM): 120 KCl, 10 HEPES, 2 EGTA and 1 Pyrophosphate (pH adjusted with KOH/HCl). In other intracellular bath solutions, K^+ was replaced by Rb^+ (pH 7.4 adjusted with RbOH/HCl). Currents were recorded with an EPC10 amplifier (HEKA electronics, Germany) and sampled at 10 kHz or higher and filtered with 3 kHz (-3 dB) or higher as appropriate for sampling rate.
Recorded currents were analyzed from stable membrane patches at a voltage defined in the respective figure legend or with a voltage protocol as indicated in the respective figure. The fold activation (fold change in (tail) current amplitude) of a ligand (drug or bioactive lipid) was calculated from Eq. 1:1 Fold activationFA=Iactivated/Ibasal where Iactivated represents the stable current level in the presence of a given concentration of a respective ligand and Ibasal the measured current before ligand application. Percentage inhibition or residual currents upon blocker application for a ligand (drug or bioactive lipid) was calculated from stable currents of excised membrane patches using the following Eqs. 2 and 3:2 %inhibition=1−Iinhibited/Ibasal*100 3 Residual current=100−%inhibition where Iinhibited refers to the stable current level recorded in the presence of a given concentration of a drug or bioactive lipid and Ibasal to the measured current before ligand application. The macroscopic half-maximal concentration-inhibition relationship of a ligand was obtained using a Hill-fit for dose-response curves as depicted in Eq. 4:4 %inhibition/activation=Ibase+Imax−Ibase/1+x1/2/x^rate where base and max are the currents in the absence and presence of a respective ligand, x is the concentration of the ligand, x1/2 is the ligand concentration at which the activatory or inhibitory effect is half-maximal, rate is the Hill coefficient.

WT TALK-2 channels = molecular target: T2, WT TALK-2 channels (Homo sapiens, UniProt Q96T54); experiment: Conductance-voltage (G-V) curves from tail currents, V1/2 (intracellular Rb+); format: cell-based; parameters: expressed in transfected cells; host or cells: Xenopus laevis oocytes (cRNA injection), excised inside-out patches; settings: for Normalized current: TALK-2 WT + 5 µM Oleoyl-CoA
T2 sequence (Q96T54 1-332): T1 sequence (Q96T54 1-332)
Excerpt: The voltage-dependent activation mechanism of the SF gate in K2P channels allows to estimate the electrical work (ΔG = zFΔV1/2) required for pore opening by fitting the G–V curve to a Boltzmann equation. […] The open state represents the situation of both gates being simultaneously open but voltage can only exert force on the SF gate that functions as voltage sensor. […] We further tested whether mutations that open the lower gate (L262A and L264A) would affect the extracellular pH sensitivity. […] We further explored this concept of allosteric coupling using the mutations identified in the functional alanine screen of TM2 and TM4. […]
Conductance-voltage (G–V) relationships were determined from tail currents recorded at a holding potential (VH) of −80 mV after 300 ms depolarizing steps as indicated in the respective figure legend. Data were analyzed with a single Boltzmann fit following Eq. 6:6 GV=Imax/1+e^V−V1/2/slope+Ibase where V1/2 represents the voltage of half-maximal activation, s is the slope factor and Imax and Ibase represent the upper and lower asymptotes. Under appropriate experimental conditions, you can use slope to calculate the valence (charge) of the ion moving across the channel. Slope equals R * T/ z * F where R is the universal gas constant, T is temperature in K, F is the Faraday constant, and z is the valence.

Fold activation 5 µM oleoyl-CoA [2]: 19.13 fold
V1/2 shift (mV) (WT TALK-2 channels; 5 µM Oleoyl-CoA, shift of G-V curve): 26.7 mV
Normalized current (WT TALK-2 channels; Voltage 0.000): 0.186
Normalized current (WT TALK-2 channels; Voltage 0.005): 0.210
Normalized current (WT TALK-2 channels; Voltage 0.010): 0.238
Normalized current (WT TALK-2 channels; Voltage 0.015): 0.274
Normalized current (WT TALK-2 channels; Voltage 0.020): 0.318
Normalized current (WT TALK-2 channels; Voltage 0.025): 0.366
Normalized current (WT TALK-2 channels; Voltage 0.030): 0.416
Normalized current (WT TALK-2 channels; Voltage 0.035): 0.467
Normalized current (WT TALK-2 channels; Voltage 0.040): 0.514
Normalized current (WT TALK-2 channels; Voltage 0.045): 0.557
Normalized current (WT TALK-2 channels; Voltage 0.050): 0.597
Normalized current (WT TALK-2 channels; Voltage 0.055): 0.633
Normalized current (WT TALK-2 channels; Voltage 0.060): 0.668
Normalized current (WT TALK-2 channels; Voltage 0.065): 0.699
Normalized current (WT TALK-2 channels; Voltage 0.070): 0.727
Normalized current (WT TALK-2 channels; Voltage 0.075): 0.755
Normalized current (WT TALK-2 channels; Voltage 0.080): 0.778
Normalized current (WT TALK-2 channels; Voltage 0.085): 0.804
Normalized current (WT TALK-2 channels; Voltage 0.090): 0.822
Normalized current (WT TALK-2 channels; Voltage 0.095): 0.844
Normalized current (WT TALK-2 channels; Voltage 0.100): 0.861
Normalized current (WT TALK-2 channels; Voltage 0.105): 0.882
Normalized current (WT TALK-2 channels; Voltage 0.110): 0.895
Normalized current (WT TALK-2 channels; Voltage 0.115): 0.911
Normalized current (WT TALK-2 channels; Voltage 0.120): 0.926
Normalized current (WT TALK-2 channels; Voltage 0.125): 0.934
Normalized current (WT TALK-2 channels; Voltage 0.130): 0.943
Normalized current (WT TALK-2 channels; Voltage 0.135): 0.956
Normalized current (WT TALK-2 channels; Voltage 0.140): 0.963
Normalized current (WT TALK-2 channels; Voltage 0.145): 0.968
Normalized current (WT TALK-2 channels; Voltage 0.150): 0.977
Normalized current (WT TALK-2 channels; Voltage 0.155): 0.979
Normalized current (WT TALK-2 channels; Voltage 0.160): 0.985
Normalized current (WT TALK-2 channels; Voltage -0.005): 0.170
Normalized current (WT TALK-2 channels; Voltage -0.010): 0.157
Normalized current (WT TALK-2 channels; Voltage -0.015): 0.148
Normalized current (WT TALK-2 channels; Voltage -0.020): 0.137
Normalized current (WT TALK-2 channels; Voltage -0.025): 0.129
Normalized current (WT TALK-2 channels; Voltage -0.030): 0.123
Normalized current (WT TALK-2 channels; Voltage -0.035): 0.120
Normalized current (WT TALK-2 channels; Voltage -0.040): 0.115
Normalized current (WT TALK-2 channels; Voltage -0.045): 0.109
Normalized current (WT TALK-2 channels; Voltage -0.050): 0.104
Normalized current (WT TALK-2 channels; Voltage -0.055): 0.102
Normalized current (WT TALK-2 channels; Voltage -0.060): 0.097
Normalized current (WT TALK-2 channels; Voltage -0.065): 0.093
Normalized current (WT TALK-2 channels; Voltage -0.070): 0.092
Normalized current (WT TALK-2 channels; Voltage -0.075): 0.089
Normalized current (WT TALK-2 channels; Voltage -0.080): 0.088
Normalized current (WT TALK-2 channels; Voltage -0.085): 0.088
Normalized current (WT TALK-2 channels; Voltage -0.090): 0.087
Normalized current (WT TALK-2 channels; Voltage -0.095): 0.087
Normalized current (WT TALK-2 channels; Voltage -0.100): 0.087
Normalized current (WT TALK-2 channels; Voltage -0.105): 0.086
Normalized current (WT TALK-2 channels; Voltage -0.110): 0.086
Normalized current (WT TALK-2 channels; Voltage -0.115): 0.086
Normalized current (WT TALK-2 channels; Voltage -0.120): 0.086
V1/2 (WT TALK-2 channels; TALK-2 WT, 5 µM ligand): 44.9 mV
Compound: CCCCCCCC/C=C\CCCCCCCC(=O)SCCNC(=O)CCNC(=O)[C@H](O)C(C)(C)COP(=O)(O)OP(=O)(O)OC[C@H]1O[C@@H](n2cnc3c(N)ncnc32)[C@H](O)[C@@H]1OP(=O)(O)O [oleoyl-CoA]
increase of channel activity [1]: more than 100 fold
